Results: patent US20180265515A1 (Genentech, Inc., priority 2015, published 2018)

Columns and labels:
[1] = biological target: T1, isolated recombinant JAK2 kinase domain (Homo sapiens, UniProt O60674); assay: JAK2 enzyme assay (Caliper LabChip, Ki); format: biochemical; conditions: 25 μM ATP
T1 construct: The activity of the isolated recombinant JAK1 and JAK2 kinase domain was measured
Procedure, shortened: (§1)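 Phosphorylation of a fluorescent JAK3-derived dodecapeptide by recombinant human JAK1 or JAK2 catalytic domain is monitored through electrophoretic product/substrate separation. Incubation lasts 30 minutes at 22° C; EDTA quench. Morrison-model Ki values account for ATP competition.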

[2] = tested on: JAK1-dependent STAT6 phosphorylation downstream of IL-13 stimulation in BEAS-2B human bronchial epithelial cells; assay: JAK1 pathway assay in BEAS-2B cells (IL-13 stimulated STAT6 phosphorylation, MSD); format: cell-based; conditions: read-out: P-STAT6 BEAS2B + IL13 IC50
Procedure, shortened: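 BEAS-2B human bronchial epithelial cells, plated the day before in complete growth medium, were preincubated with compound for 1 hr at 37° C (0.2% DMSO final), then stimulated with IL-13 at its EC90 for 15 min. STAT6 phosphorylation in lysates was read by MSD; EC50 was taken as 50% inhibition versus DMSO control.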

[3] = biological target: T2, isolated recombinant JAK1 kinase domain (Homo sapiens, UniProt P23458); assay: JAK1 enzyme assay (Caliper LabChip, Ki); format: biochemical; conditions: recombinant JAK1 kinase domain, 25 μM ATP
T2 construct: The activity of the isolated recombinant JAK1 and JAK2 kinase domain was measured
Procedure, shortened: as §1

T1 sequence (O60674 849-1124 limits assumed): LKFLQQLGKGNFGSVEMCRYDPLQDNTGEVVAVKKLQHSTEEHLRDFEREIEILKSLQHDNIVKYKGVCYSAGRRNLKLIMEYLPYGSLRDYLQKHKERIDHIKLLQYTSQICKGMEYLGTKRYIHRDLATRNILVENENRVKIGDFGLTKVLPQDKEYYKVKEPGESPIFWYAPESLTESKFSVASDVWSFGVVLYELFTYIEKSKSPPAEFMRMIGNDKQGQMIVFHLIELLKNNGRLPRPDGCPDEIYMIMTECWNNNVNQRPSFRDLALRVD
T2 sequence (P23458 875-1153 limits assumed): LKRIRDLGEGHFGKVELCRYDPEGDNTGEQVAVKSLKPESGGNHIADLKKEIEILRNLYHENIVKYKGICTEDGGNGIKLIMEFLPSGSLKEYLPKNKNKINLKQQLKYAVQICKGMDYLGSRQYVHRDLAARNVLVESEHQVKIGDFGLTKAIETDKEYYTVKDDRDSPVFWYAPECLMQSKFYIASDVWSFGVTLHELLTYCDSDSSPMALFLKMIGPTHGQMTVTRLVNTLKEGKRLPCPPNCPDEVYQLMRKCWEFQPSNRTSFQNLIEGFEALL

Row | Ki [1] | Ki [3] | Compound | IC50 [2]
1 | 0.44 nM | 0.29 nM | CNC(=O)[C@@H]1CCCN1C1CCN(C(=O)Cn2cc(NC(=O)c3cnn4cccnc34)c(-c3cc(SC)ccc3OC(F)F)n2)CC1 [Example 52, N-[3-[2-(difluoromethoxy)-5-methylsulfanyl-phenyl]-1-[2-[4-[(2S)-2-(methylcarbamoyl)pyrrolidin-1-yl]-1-piperidyl]-2-oxo-ethyl]pyrazol-4-yl]pyrazolo[1,5-a]pyrimidine-3-carboxamide] | 43 nM
2 | 0.32 nM | 0.27 nM | CSc1ccc(OC(F)F)c(-c2nn(CC(=O)N3CCN(C4CCOCC4)CC3)cc2NC(=O)c2cnn3cccnc23)c1 [Example 53, N-[3-[2-(difluoromethoxy)-5-methylsulfanyl-phenyl]-1-[2-oxo-2-(4-tetrahydropyran-4-ylpiperazin-1-yl)ethyl]pyrazol-4-yl]pyrazolo[1,5-a]pyrimidine-3-carboxamide] | 12 nM
3 | 0.31 nM | 0.23 nM | CSc1ccc(OC(F)F)c(-c2nn(CC(=O)N3CCN(C4CCOC4)CC3)cc2NC(=O)c2cnn3cccnc23)c1 (stereo not drawn) [Example 54, N-[3-[2-(difluoromethoxy)-5-methylsulfanyl-phenyl]-1-[2-oxo-2-(4-tetrahydrofuran-3-ylpiperazin-1-yl)ethyl]pyrazol-4-yl]pyrazolo[1,5-a]pyrimidine-3-carboxamide] | 12 nM
4 | 0.52 nM | 0.27 nM | CSc1ccc(OC(F)F)c(-c2nn(CC(=O)N3CCC(N4CCC[C@H](C#N)C4)CC3)cc2NC(=O)c2cnn3cccnc23)c1 [Example 55, N-[1-(2-[4-[(3 S)-3-cyanopiperidin-1-yl]piperidin-1-yl]-2-oxoethyl)-3-[2-(difluoromethoxy)-5-(methylsulfanyl)phenyl]-1H-pyrazol-4-yl]pyrazolo[1,5-a]pyrimidine-3-carboxamide] | 11 nM
5 | 0.48 nM | 0.41 nM | CSc1ccc(OC(F)F)c(-c2nn(CC(=O)N3C[C@@H]4CCN[C@@H]4C3)cc2NC(=O)c2cnn3cccnc23)c1 [Example 56, N-[1-[2-[(3aS,6aS)-2,3,3a,4,6,6a-hexahydro-1H-pyrrolo[2,3-c]pyrrol-5-yl]-2-oxo-ethyl]-3-[2-(difluoromethoxy)-5-methylsulfanyl-phenyl]pyrazol-4-yl]pyrazolo[1,5-a]pyrimidine-3-carboxamide] | 84 nM
6 | 0.43 nM | 0.26 nM | CSc1ccc(OC(F)F)c(-c2nn(CC(=O)N3CCC(N4CCOC[C@H]4C)CC3)cc2NC(=O)c2cnn3cccnc23)c1 [Example 57, N-[3-[2-(difluoromethoxy)-5-methylsulfanyl-phenyl]-1-[2-[4-[(3R)-3-methylmorpholin-4-yl]-1-piperidyl]-2-oxo-ethyl]pyrazol-4-yl]pyrazolo[1,5-a]pyrimidine-3-carboxamide] | 18 nM
7 | 0.33 nM | 0.2 nM | CSc1ccc(OC(F)F)c(-c2nn(CC(=O)N3CCC(N4CCC[C@@H](C#N)C4)CC3)cc2NC(=O)c2cnn3cccnc23)c1 [Example 58, N-[1-(2-[4-[(3R)-3-cyanopiperidin-1-yl]piperidin-1-yl]-2-oxoethyl)-3-[2-(difluoromethoxy)-5-(methylsulfanyl)phenyl]-1H-pyrazol-4-yl]pyrazolo[1,5-a]pyrimidine-3-carboxamide] | 13 nM
8 | 0.34 nM | 0.2 nM | CSc1ccc(OC(F)F)c(-c2nn(CC(=O)N3CCC(N4CC(C#N)C4)CC3)cc2NC(=O)c2cnn3cccnc23)c1 [Example 59, N-[1-[2-[4-(3-cyanoazetidin-1-yl)-1-piperidyl]-2-oxo-ethyl]-3-[2-(difluoromethoxy)-5-methylsulfanyl-phenyl]pyrazol-4-yl]pyrazolo[1,5-a]pyrimidine-3-carboxamide] | 15 nM
9 | 0.52 nM | 0.31 nM | CSc1ccc(OC(F)F)c(-c2nn(CC(=O)N3CCC(N(C)[C@@H]4CCOC4)CC3)cc2NC(=O)c2cnn3cccnc23)c1 [Example 60, N-[3-[2-(difluoromethoxy)-5-methylsulfanyl-phenyl]-1-[2-[4-[methyl-[(3R)-tetrahydrofuran-3-yl]amino]-1-piperidyl]-2-oxo-ethyl]pyrazol-4-yl]pyrazolo[1,5-a]pyrimidine-3-carboxamide] | 14 nM
10 | 0.48 nM | 0.25 nM | CSc1ccc(OC(F)F)c(-c2nn(CC(=O)N3CCC(N4CCOC[C@@H]4C)CC3)cc2NC(=O)c2cnn3cccnc23)c1 [Example 61, N-[3-[2-(difluoromethoxy)-5-methylsulfanyl-phenyl]-1-[2-[4-[(3S)-3-methylmorpholin-4-yl]-1-piperidyl]-2-oxo-ethyl]pyrazol-4-yl]pyrazolo[1,5-a]pyrimidine-3-carboxamide] | 13 nM
11 | 0.38 nM | 0.27 nM | CSc1ccc(OC(F)F)c(-c2nn(CC(=O)N3CCC(N4CCS(=O)(=O)CC4)CC3)cc2NC(=O)c2cnn3cccnc23)c1 [Example 62, N-[3-[2-(difluoromethoxy)-5-methylsulfanyl-phenyl]-1-[2-[4-(1,1-dioxo-1,4-thiazinan-4-yl)-1-piperidyl]-2-oxo-ethyl]pyrazol-4-yl]pyrazolo[1,5-a]pyrimidine-3-carboxamide] | 160 nM
12 | 0.7 nM | 0.35 nM | CSc1ccc(OC(F)F)c(-c2nn(CC(=O)N3CCC(N4CCN(C)CC4)CC3)cc2NC(=O)c2cnn3cccnc23)c1 [Example 63, N-[3-[2-(difluoromethoxy)-5-(methylsulfanyl)phenyl]-1-[2-[4-(4-methylpiperazin-1-yl)piperidin-1-yl]-2-oxoethyl]-1H-pyrazol-4-yl]pyrazolo[1,5-a]pyrimidine-3-carboxamide] | 22 nM
13 | 0.48 nM | 0.33 nM | CSc1ccc(OC(F)F)c(-c2nn(CC(=O)N3CCC(NCCCC#N)CC3)cc2NC(=O)c2cnn3cccnc23)c1 [Example 64, N-[1-[2-[4-(3-cyanopropylamino)-1-piperidyl]-2-oxo-ethyl]-3-[2-(difluoromethoxy)-5-methylsulfanyl-phenyl]pyrazol-4-yl]pyrazolo[1,5-a]pyrimidine-3-carboxamide] | 52 nM
14 | 0.49 nM | 0.41 nM | CSc1ccc(OC(F)F)c(-c2nn(CC(=O)N3CCN(CC4CCOCC4)CC3)cc2NC(=O)c2cnn3cccnc23)c1 [Example 65, N-[3-[2-(difluoromethoxy)-5-methylsulfanyl-phenyl]-1-[2-oxo-2-[4-(tetrahydropyran-4-ylmethyl)piperazin-1-yl]ethyl]pyrazol-4-yl]pyrazolo[1,5-a]pyrimidine-3-carboxamide] | 15 nM
15 | 0.24 nM | 0.2 nM | CSc1ccc(OC(F)F)c(-c2nn(CC(=O)N3CCN(C4CCSCC4)CC3)cc2NC(=O)c2cnn3cccnc23)c1 [Example 66, N-[3-[2-(difluoromethoxy)-5-methylsulfanyl-phenyl]-1-[2-oxo-2-(4-tetrahydrothiopyran-4-ylpiperazin-1-yl)ethyl]pyrazol-4-yl]pyrazolo[1,5-a]pyrimidine-3-carboxamide] | 5 nM
16 | 0.27 nM | 0.19 nM | CSc1ccc(OC(F)F)c(-c2nn(CC(=O)N3CC=CCC3)cc2NC(=O)c2cnn3cccnc23)c1 [Example 67, N-[3-[2-(difluoromethoxy)-5-methylsulfanyl-phenyl]-1-[2-(3,6-dihydro-2H-pyridin-1-yl)-2-oxo-ethyl]pyrazol-4-yl]pyrazolo[1,5-a]pyrimidine-3-carboxamide] | 8.9 nM
17 | 0.85 nM | 0.47 nM | CSc1ccc(OC(F)F)c(-c2nn(CC(=O)N3CCC(N(C)CCC(=O)N4CCC4)CC3)cc2NC(=O)c2cnn3cccnc23)c1 [Example 68, N-[1-[2-[4-[[3-(azetidin-1-yl)-3-oxo-propyl]-methyl-amino]-1-piperidyl]-2-oxo-ethyl]-3-[2-(difluoromethoxy)-5-methylsulfanyl-phenyl]pyrazol-4-yl]pyrazolo[1,5-a]pyrimidine-3-carboxamide] | 300 nM
18 | 0.71 nM | 0.35 nM | CSc1ccc(OC(F)F)c(-c2nn(CC(=O)N3CCC(N4CCN(C5COC5)CC4)CC3)cc2NC(=O)c2cnn3cccnc23)c1 [Example 69, N-[3-[2-(difluoromethoxy)-5-methylsulfanyl-phenyl]-1-[2-[4-[4-(oxetan-3-yl)piperazin-1-yl]-1-piperidyl]-2-oxo-ethyl]pyrazol-4-yl]pyrazolo[1,5-a]pyrimidine-3-carboxamide] | 50 nM
19 | 0.82 nM | 0.42 nM | CSc1ccc(OC(F)F)c(-c2nn(CC(=O)N3CCC(N4CCN(C5CCOCC5)CC4)CC3)cc2NC(=O)c2cnn3cccnc23)c1 [Example 70, N-[3-[2-(difluoromethoxy)-5-methylsulfanyl-phenyl]-1-[2-oxo-2-[4-(4-tetrahydropyran-4-ylpiperazin-1-yl)-1-piperidyl]ethyl]pyrazol-4-yl]pyrazolo[1,5-a]pyrimidine-3-carboxamide] | 38 nM
20 | 1.1 nM | 0.59 nM | CSc1ccc(OC(F)F)c(-c2nn(CC(=O)N3CCC(OCC(=O)N4CCN(C)CC4)CC3)cc2NC(=O)c2cnn3cccnc23)c1 [Example 71, N-(3-(2-(difluoromethoxy)-5-(methylthio)phenyl)-1-(2-(4-(2-(4-methylpiperazin-1-yl)-2-oxoethoxy)piperidin-1-yl)-2-oxoethyl)-1H-pyrazol-4-yl)pyrazolo[1,5-a]pyrimidine-3-carboxamide] | 83 nM
